Results from the supplement of paper PMC10307832.

Key:
Assay in all cases: relative viability (nuclei count vs DMSO), 5 days (fraction); higher = more cells survive
4EGI-1 + Tozasertib = compound: O=C(O)C(Cc1ccccc1[N+](=O)[O-])=NNc1nc(-c2ccc(Cl)c(Cl)c2)cs1 (mixture of isomers) [4EGI-1] + Cc1cc(Nc2cc(N3CCN(C)CC3)nc(Sc3ccc(NC(=O)C4CC4)cc3)n2)n[nH]1 [Tozasertib] (partner 0.1 µM)
Outline: (§1)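 Relative viability divides the nuclei count in treated wells by that in vehicle wells. Lung cancer cell lines were seeded in 1536-well plates, dosed by pin tool the next day, and fixed and stained after 5 days in one step with final 0.05% Triton X-100, 1% formaldehyde and 1 ug/ml Hoechst. Dosing was a single drug or a fixed anchor-drug dose plus five library-drug doses (not always all listed) in √10 steps, and values are medians of duplicate plates imaged at 4×.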

4EGI-1 + Bortezomib = compound: O=C(O)C(Cc1ccccc1[N+](=O)[O-])=NNc1nc(-c2ccc(Cl)c(Cl)c2)cs1 (mixture of isomers) [4EGI-1] + CC(C)C[C@H](NC(=O)[C@H](Cc1ccccc1)NC(=O)c1cnccn1)B(O)O [Bortezomib] (partner 0.002 µM)
Outline: as §1

XMD8-85 + Dasatinib = compound: CN1CCN(CC1)C2=CC(=C(C=C2)NC3=NC=C4C(=N3)N(C5=CC=CC=C5C(=O)N4C)C)OC [XMD8-85] + Cc1nc(Nc2ncc(C(=O)Nc3c(C)cccc3Cl)s2)cc(N2CCN(CCO)CC2)n1 [Dasatinib] (partner 0.075 µM)
Outline: as §1

4EGI-1 + Pemetrexed = compound: O=C(O)C(Cc1ccccc1[N+](=O)[O-])=NNc1nc(-c2ccc(Cl)c(Cl)c2)cs1 (mixture of isomers) [4EGI-1] + Nc1nc2[nH]cc(CCc3ccc(C(=O)N[C@@H](CCC(=O)O)C(=O)O)cc3)c2c(=O)[nH]1 [Pemetrexed] (partner 0.2 µM)
Outline: as §1

Cell Line | relative viability (4EGI-1 + Tozasertib; first compound 0.5 µM) | relative viability (4EGI-1 + Tozasertib; first compound 5 µM) | relative viability (4EGI-1 + Tozasertib; first compound 15.81 µM) | relative viability (4EGI-1 + Tozasertib; first compound 50 µM) | relative viability (4EGI-1 + Bortezomib; first compound 0.5 µM) | relative viability (4EGI-1 + Bortezomib; first compound 5 µM) | relative viability (4EGI-1 + Bortezomib; first compound 15.81 µM) | relative viability (4EGI-1 + Bortezomib; first compound 50 µM) | relative viability (XMD8-85 + Dasatinib; first compound 0.08 µM) | relative viability (XMD8-85 + Dasatinib; first compound 0.253 µM) | relative viability (XMD8-85 + Dasatinib; first compound 0.8 µM) | relative viability (XMD8-85 + Dasatinib; first compound 2.53 µM) | relative viability (XMD8-85 + Dasatinib; first compound 8 µM) | relative viability (4EGI-1 + Pemetrexed; first compound 0.5 µM) | relative viability (4EGI-1 + Pemetrexed; first compound 5 µM) | relative viability (4EGI-1 + Pemetrexed; first compound 15.81 µM) | relative viability (4EGI-1 + Pemetrexed; first compound 50 µM) | relative viability (4EGI-1 + Tozasertib; first compound 1.581 µM) | relative viability (4EGI-1 + Bortezomib; first compound 1.581 µM) | relative viability (4EGI-1 + Pemetrexed; first compound 1.581 µM)
NCI-H1650 | 0.474 | 0.413 | 0.327 | 0.267 | 0.197 | 0.219 | 0.216 | 0.189 | 0.34 | 0.313 | 0.365 | 0.271 | 0.192 | 0.369 | 0.412 | 0.356 | 0.313 | – | – | –
CAL-12T | 0.354 | 0.315 | 0.315 | 0.21 | – | 1.1 | 0.951 | 0.403 | 0.374 | 0.363 | 0.431 | 0.447 | 0.225 | 1.21 | 1.25 | 1.14 | 0.86 | 0.264 | – | –
NCI-H1355 | 0.551 | 0.559 | 0.429 | 0.291 | 1.32 | 1.11 | 1.18 | 0.545 | 0.671 | 0.753 | 0.653 | 0.819 | – | 0.967 | 0.99 | 0.963 | 0.589 | 0.551 | 1.17 | 0.927
NCI-H2023 | 0.377 | 0.38 | 0.259 | 0.142 | 1.53 | 1.23 | 0.309 | 0.101 | 0.426 | 0.521 | 0.586 | 0.619 | 0.314 | 0.263 | 0.223 | 0.164 | 0.101 | – | – | –
PC-14 | 0.584 | 0.57 | – | 0.28 | 1.06 | 0.839 | – | 0.859 | 0.229 | 0.271 | 0.275 | 0.249 | 0.115 | 0.135 | 0.159 | 0.185 | 0.0861 | – | – | –
LXF-289 | 0.203 | 0.204 | 0.151 | 0.168 | 1.06 | 1 | 0.876 | 0.443 | 0.214 | 0.23 | 0.208 | 0.243 | 0.2 | 0.874 | 0.941 | 0.804 | 0.605 | 0.22 | 1.06 | 0.909
NCI-H2009 | 0.813 | 0.784 | 0.697 | 0.211 | 1.2 | 1.19 | 0.944 | 0.186 | 0.285 | 0.29 | 0.288 | 0.209 | 0.167 | 1.01 | 1.04 | 0.951 | 0.805 | 0.709 | 0.954 | 1
SK-LU-1 | 0.374 | 0.381 | 0.259 | 0.227 | 1.18 | 1.36 | 1.53 | 0.913 | 0.135 | 0.183 | 0.208 | 0.172 | 0.179 | 0.932 | 0.992 | 1.06 | 0.319 | 0.335 | – | 1.02
NCI-H23 | 0.393 | 0.471 | 0.382 | 0.214 | 1.16 | 1.18 | 1.03 | 0.656 | 0.719 | 0.853 | 0.885 | 0.751 | 0.528 | 0.819 | 0.77 | 0.551 | 0.274 | – | – | –
NCI-H2405 | 0.723 | 0.815 | 0.789 | 0.839 | 0.972 | 0.949 | 0.992 | 0.79 | 0.206 | 0.206 | 0.221 | 0.198 | 0.177 | 1.1 | 1.3 | 1.05 | 0.285 | 0.645 | 0.858 | –
RERF-LC-KJ | 0.547 | 0.425 | 0.363 | 0.216 | 1.09 | 1.07 | 0.847 | 0.931 | 0.939 | 0.743 | 0.816 | 0.858 | 0.574 | 0.51 | 0.444 | 0.457 | 0.431 | – | – | 0.351
HCC-827 | 0.428 | 0.415 | – | 0.358 | 0.991 | 1.02 | 0.267 | 0.519 | 0.403 | 0.33 | 0.34 | 0.439 | 0.457 | 0.27 | 0.269 | – | 0.228 | 0.422 | 0.853 | 0.232
NCI-H650 | 0.858 | 0.777 | 0.644 | 0.626 | 0.905 | 0.753 | 0.899 | 0.499 | 0.446 | 0.51 | 0.437 | 0.418 | 0.304 | 0.966 | 1.06 | 0.973 | 0.725 | – | – | –
SW 1573 | 0.176 | 0.149 | 0.172 | 0.102 | 1.4 | 0.972 | 0.948 | 0.822 | 0.466 | 0.364 | 0.393 | 0.499 | 0.343 | 0.963 | 0.794 | 0.329 | 0.126 | 0.188 | 1.06 | 0.742
NCI-H661 | 0.336 | 0.34 | 0.355 | 0.283 | 1.13 | 0.877 | 0.55 | 0.464 | 0.81 | 0.888 | 0.856 | 0.834 | 0.455 | 0.939 | 0.92 | 0.761 | 0.334 | 0.34 | 0.752 | 0.834
UMC-11 | 0.192 | 0.203 | 0.201 | 0.21 | 1.04 | 0.669 | 0.679 | 0.255 | 0.418 | 0.437 | 0.556 | 0.512 | 0.335 | 0.841 | 0.863 | 0.805 | 0.52 | 0.198 | 0.872 | 0.792
NCI-H1651 | 0.704 | 0.678 | 0.383 | 0.372 | 0.951 | 0.934 | 0.896 | 0.772 | 0.46 | 0.334 | 0.511 | 0.387 | 0.307 | 0.599 | 0.636 | 0.52 | 0.412 | 0.518 | 0.837 | 0.576
